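1) Cells in 96-well plates. 2) Compound, 48 h, 5 concentrations. 3) Linear interpolation between surrounding doses. 4) Unreached endpoint = highest concentration. At the GI50, growth is halved. TGI: concentration producing complete growth inhibition.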
Tests used:
Experiment in all cases: growth of human tumour cells (NCI), 48 h
[1] = test system: M14 melanoma
[2] = test system: SK-OV-3 ovarian
[3] = test system: 786-0 renal
[4] = test system: DU-145 prostate
[5] = test system: SW-620 colon
[6] = test system: OVCAR-3 ovarian
[7] = test system: NCI-H226 lung
[8] = test system: TK-10 renal
[9] = test system: SR leukemia
[10] = test system: KM12 colon
[11] = test system: MALME-3M melanoma
[12] = test system: RPMI-8226 leukemia
[13] = test system: COLO 205 colon
[14] = test system: UACC-257 melanoma
[15] = test system: CCRF-CEM leukemia
[16] = test system: NCI/ADR-RES ovarian
[17] = test system: SF-268 CNS
[18] = test system: SNB-19 CNS
[19] = test system: OVCAR-8 ovarian
[20] = test system: BT-549 breast
[21] = test system: RXF 393 renal
[22] = test system: SF-539 CNS
[23] = test system: U251 CNS
[24] = test system: MOLT-4 leukemia
[25] = test system: HL-60(TB) leukemia
[26] = test system: HCT-15 colon
[27] = test system: SNB-75 CNS
[28] = test system: T-47D breast
[29] = test system: IGROV1 ovarian
[30] = test system: HT29 colon
[31] = test system: HCC-2998 colon
[32] = test system: UO-31 renal
[33] = test system: SN12C renal
[34] = test system: PC-3 prostate
[35] = test system: NCI-H460 lung
[36] = test system: OVCAR-5 ovarian
[37] = test system: SF-295 CNS
[38] = test system: HOP-62 NSCLC
[39] = test system: NCI-H23 lung
[40] = test system: MDA-MB-231 breast
[41] = test system: SK-MEL-28 melanoma
[42] = test system: SK-MEL-2 melanoma
[43] = test system: SK-MEL-5 melanoma
[44] = test system: K-562 leukemia
[45] = test system: UACC-62 melanoma
[46] = test system: A498 renal
[47] = test system: A549 NSCLC
[48] = test system: CAKI-1 renal
[49] = test system: HS 578T breast
[50] = test system: NCI-H522 lung
[51] = test system: ACHN renal
[52] = test system: MDA-MB-435
[53] = test system: HCT-116 colon
[54] = test system: HOP-92 NSCLC
[55] = test system: EKVX NSCLC
[56] = test system: MCF7 breast
[57] = test system: LOX IMVI melanoma

## Cc1cc(C)cc(NC2=C(Cl)C(=O)c3nc(C)ccc3C2=O)c1
[1]
  GI50: 1630 nM
  TGI: 3070 nM
[2]
  GI50: 14300 nM
  TGI: 27700 nM
[3]
  GI50: 1700 nM
  TGI: 3420 nM
[4]
  GI50: 1850 nM
  TGI: 3550 nM
[5]
  GI50: 2070 nM
  TGI: 4650 nM
[6]
  GI50: 405 nM
  TGI: 1470 nM
[7]
  GI50: 1800 nM
  TGI: 4580 nM
[8]
  GI50: 2210 nM
  TGI: 3730 nM
[9]
  GI50: 1220 nM
  TGI: 3960 nM
[10]
  GI50: 5600 nM
  TGI: 20700 nM
[11]
  GI50: 2300 nM
  TGI: 4420 nM
[12]
  GI50: 1630 nM
  TGI: 4400 nM
[13]
  GI50: 2230 nM
  TGI: 5010 nM
[14]
  GI50: 1640 nM
  TGI: 3120 nM
[15]
  GI50: 2090 nM
  TGI: 5780 nM
[16]
  GI50: 2060 nM
  TGI: 6790 nM
[17]
  GI50: 3740 nM
  TGI: 20700 nM
[18]
  GI50: 3410 nM
  TGI: 24400 nM
[19]
  GI50: 2140 nM
  TGI: 5920 nM
[20]
  GI50: 1410 nM
  TGI: 2830 nM
[21]
  GI50: 1410 nM
  TGI: 2740 nM
[22]
  GI50: 1760 nM
  TGI: 3250 nM
[23]
  GI50: 2350 nM
  TGI: 8090 nM
[24]
  GI50: 1600 nM
  TGI: 5610 nM
[25]
  GI50: 1550 nM
  TGI: 3850 nM
[26]
  GI50: 1090 nM
  TGI: 2640 nM
[27]
  GI50: 2150 nM
  TGI: 6480 nM
[28]
  GI50: 1550 nM
  TGI: 4260 nM
[29]
  GI50: 1810 nM
  TGI: 3950 nM
[30]
  GI50: 3660 nM
  TGI: 19200 nM
[31]
  GI50: 3180 nM
  TGI: 10500 nM
[32]
  GI50: 1430 nM
  TGI: 2870 nM
[33]
  GI50: 2000 nM
  TGI: 5790 nM
[34]
  GI50: 1730 nM
  TGI: 10200 nM
[35]
  GI50: 4200 nM
  TGI: 20100 nM
[36]
  GI50: 1780 nM
  TGI: 3690 nM
[37]
  GI50: 4580 nM
  TGI: 16300 nM
[38]
  GI50: 4660 nM
  TGI: 19700 nM
[39]
  GI50: 1700 nM
  TGI: 4590 nM
[40]
  GI50: 1680 nM
  TGI: 4130 nM
[41]
  GI50: 1990 nM
  TGI: 3940 nM
[42]
  GI50: 2880 nM
  TGI: 9570 nM
[43]
  GI50: 1650 nM
  TGI: 3080 nM
[44]
  GI50: 712 nM
  TGI: 4810 nM
[45]
  GI50: 2630 nM
  TGI: 7420 nM
[46]
  GI50: 14300 nM
  TGI: 28100 nM
[47]
  GI50: 4370 nM
  TGI: 19100 nM
[48]
  GI50: 1590 nM
  TGI: 3180 nM
[49]
  GI50: 2240 nM
  TGI: 5810 nM
[50]
  GI50: 2050 nM
  TGI: 5290 nM
[51]
  GI50: 1780 nM
  TGI: 3400 nM
[52]
  GI50: 1960 nM
  TGI: 3860 nM

## CN1CCN(Cc2ccc(NC(=O)c3cncc(C#Cc4cnc5ccc(N6CCSCC6)nn45)c3)cc2C(F)(F)F)CC1
[1]
  GI50: 156 nM
  TGI: 760 nM
[2]
  GI50: 656 nM
  TGI: 2060 nM
[3]
  GI50: 189 nM
  TGI: 762 nM
[4]
  GI50: 202 nM
  TGI: 600 nM
[5]
  GI50: 153 nM
  TGI: 1090 nM
[6]
  GI50: 322 nM
  TGI: 1290 nM
[7]
  GI50: 51.8 nM
  TGI: 780 nM
[8]
  GI50: 319 nM
  TGI: 1080 nM
[9]
  GI50: 208 nM
  TGI: 712 nM
[10]
  TGI: 340 nM
[11]
  GI50: 202 nM
  TGI: 1070 nM
[12]
  GI50: 333 nM
  TGI: 2070 nM
[13]
  GI50: 153 nM
  TGI: 429 nM
[14]
  GI50: 599 nM
  TGI: 2340 nM
[15]
  GI50: 303 nM
[18]
  GI50: 446 nM
  TGI: 1350 nM
[20]
  GI50: 354 nM
  TGI: 1240 nM
[21]
  GI50: 141 nM
  TGI: 295 nM
[22]
  GI50: 93.6 nM
  TGI: 275 nM
[24]
  GI50: 198 nM
  TGI: 666 nM
[25]
  GI50: 78.2 nM
  TGI: 520 nM
[53]
  GI50: 112 nM
  TGI: 1160 nM
[26]
  GI50: 172 nM
  TGI: 564 nM
[27]
  GI50: 256 nM
  TGI: 832 nM
[28]
  GI50: 1400 nM
  TGI: 3890 nM
[54]
  GI50: 41.8 nM
  TGI: 240 nM
[29]
  GI50: 168 nM
  TGI: 806 nM
[30]
  GI50: 74.4 nM
  TGI: 554 nM
[31]
  GI50: 245 nM
  TGI: 878 nM
[32]
  GI50: 280 nM
  TGI: 855 nM
[33]
  GI50: 112 nM
  TGI: 702 nM
[34]
  GI50: 327 nM
  TGI: 1990 nM
[55]
  GI50: 100 nM
  TGI: 877 nM
[35]
  GI50: 208 nM
  TGI: 532 nM
[36]
  GI50: 282 nM
  TGI: 1320 nM
[37]
  GI50: 310 nM
  TGI: 1600 nM
[38]
  GI50: 338 nM
  TGI: 1450 nM
[39]
  GI50: 156 nM
  TGI: 595 nM
[40]
  GI50: 74.2 nM
  TGI: 572 nM
[41]
  GI50: 498 nM
  TGI: 1850 nM
[42]
  GI50: 260 nM
  TGI: 745 nM
[43]
  GI50: 786 nM
  TGI: 2080 nM
[44]
  TGI: 753 nM
[45]
  GI50: 468 nM
  TGI: 1930 nM
[46]
  GI50: 307 nM
  TGI: 537 nM
[56]
  GI50: 45.9 nM
  TGI: 598 nM
[47]
  GI50: 272 nM
  TGI: 1580 nM
[48]
  GI50: 221 nM
  TGI: 787 nM
[57]
  GI50: 152 nM
  TGI: 535 nM
[50]
  GI50: 132 nM
  TGI: 340 nM
[51]
  GI50: 224 nM
  TGI: 1200 nM
[52]
  GI50: 197 nM
  TGI: 1480 nM

Source: PubChem BioAssay (NCI)
